# Measurements: ChEMBL document CHEMBL2029260, “Structural basis of selective inhibition of human tankyrases” (J Med Chem, 2012)
# Biological target: T1, Poly [ADP-ribose] polymerase tankyrase-2 (Homo sapiens, UniProt Q9H2K2)
# T1 sequence (Q9H2K2 whole entry): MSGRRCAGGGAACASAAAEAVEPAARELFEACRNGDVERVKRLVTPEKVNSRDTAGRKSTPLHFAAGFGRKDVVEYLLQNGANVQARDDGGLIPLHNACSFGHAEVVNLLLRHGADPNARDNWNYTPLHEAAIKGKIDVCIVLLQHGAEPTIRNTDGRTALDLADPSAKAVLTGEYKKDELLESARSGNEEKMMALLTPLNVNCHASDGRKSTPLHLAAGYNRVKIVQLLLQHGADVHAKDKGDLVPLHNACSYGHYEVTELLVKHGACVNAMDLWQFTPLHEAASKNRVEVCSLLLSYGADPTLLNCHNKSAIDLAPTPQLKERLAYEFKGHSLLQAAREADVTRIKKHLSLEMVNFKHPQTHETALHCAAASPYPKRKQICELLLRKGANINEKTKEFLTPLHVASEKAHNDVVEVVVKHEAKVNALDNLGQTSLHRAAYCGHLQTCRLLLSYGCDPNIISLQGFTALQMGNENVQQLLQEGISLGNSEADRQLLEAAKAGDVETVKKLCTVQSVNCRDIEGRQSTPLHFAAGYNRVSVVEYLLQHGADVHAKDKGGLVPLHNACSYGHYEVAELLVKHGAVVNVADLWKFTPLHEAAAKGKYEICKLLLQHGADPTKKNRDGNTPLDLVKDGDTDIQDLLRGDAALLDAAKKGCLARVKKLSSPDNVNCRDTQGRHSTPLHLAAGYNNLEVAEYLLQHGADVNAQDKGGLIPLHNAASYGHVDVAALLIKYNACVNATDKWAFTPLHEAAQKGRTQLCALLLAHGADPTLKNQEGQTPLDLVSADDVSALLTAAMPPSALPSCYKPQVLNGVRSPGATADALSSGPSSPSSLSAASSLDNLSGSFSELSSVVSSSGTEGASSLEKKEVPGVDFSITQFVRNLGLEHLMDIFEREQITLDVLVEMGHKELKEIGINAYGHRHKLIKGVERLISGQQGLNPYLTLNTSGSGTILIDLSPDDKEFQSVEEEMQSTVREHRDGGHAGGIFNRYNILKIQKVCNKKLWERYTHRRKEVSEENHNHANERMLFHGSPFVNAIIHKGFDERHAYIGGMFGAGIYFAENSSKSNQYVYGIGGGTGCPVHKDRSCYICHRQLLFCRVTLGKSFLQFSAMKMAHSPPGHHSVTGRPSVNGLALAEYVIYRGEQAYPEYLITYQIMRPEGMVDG
# Assay: Activity of N-terminus hexaHis-tagged human TNSK2 expressed in Escherichia coli BL21 (DE3) cells using biotinylated NAD+ as substrate after 90 mins by Western blot analysis
row,EC50 [µM],Structure (SMILES)
1,> 25,O=C(Nc1ccccc1)c1ccc(N2C(=O)[C@@H]3[C@H](C2=O)[C@@H]2C=C[C@H]3C2)cc1
2,2,CO[C@H]1CCCC[C@@H]1NC(=O)c1ccc(N2C(=O)[C@@H]3[C@H](C2=O)[C@@H]2C=C[C@H]3C2)cc1
3,1,O=C(Nc1ccc(Br)cc1)c1ccc(N2C(=O)[C@@H]3[C@H](C2=O)[C@@H]2C=C[C@H]3C2)cc1
4,10,O=C(NCc1ccncc1)c1ccc(N2C(=O)[C@@H]3[C@H](C2=O)[C@@H]2C=C[C@H]3C2)cc1
5,20,O=C(NCc1ccccc1)c1ccc(N2C(=O)[C@@H]3[C@H](C2=O)[C@@H]2C=C[C@H]3C2)cc1
6,> 25,O=C(NC1CCCCC1)c1ccc(N2C(=O)[C@@H]3[C@H](C2=O)[C@@H]2C=C[C@H]3C2)cc1
